Source: patent publication US20060069132A1, “Azolecarboxamide herbicides” (priority 2004, published 2006)

Columns and labels:
pigweed = assay: Test B pre-/postemergence herbicide test; format: in vivo, Amaranthus retroflexus
In short: (§1)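 Seeds were planted and treated preemergence with compounds formulated in a non-phytotoxic solvent mixture containing surfactant, while plants at the 1- to 4-leaf stage (2 to 18 cm) received postemergence sprays. Flooded paddy plants were grown to the 2-leaf stage. After 13 to 15 days in a greenhouse, injury was visually rated 0–100 against untreated controls.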

giant foxtail [1] = assay: Test A pre-/postemergence herbicide test; format: in vivo, Setaria faberi
In short: (§2)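 Visual injury scores on a 0–100 scale (100 = complete control) taken about ten days post-treatment in greenhouse against untreated controls; dash means no result. Treatments: preemergence soil spray and postemergence spray to runoff on one- to two-leaf plants 2 to 10 cm tall, surfactant-containing formulation.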

giant foxtail [2] = assay: Test B pre-/postemergence herbicide test; format: in vivo, Setaria faberi
In short: as §1

velvetleaf [3] = assay: Test A pre-/postemergence herbicide test; format: in vivo, Abutilon theophrasti
In short: as §2

blackgrass = assay: Test B postemergence herbicide test; format: in vivo, Alopecurus myosuroides
In short: (§3)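 Visual control ratings, 0–100 versus untreated controls, taken after 13 to 15 days in the greenhouse. Blackgrass received a postemergence spray at the 1- to 4-leaf stage (2–18 cm); ducksalad, umbrella sedge and barnyardgrass were flooded-paddy treated at 2 leaves.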

velvetleaf [4] = assay: Test B pre-/postemergence herbicide test; format: in vivo, Abutilon theophrasti
In short: as §1

redroot pigweed = assay: Test A pre-/postemergence herbicide test; format: in vivo, Amaranthus retroflexus
In short: as §2

Surinam grass = assay: Test B pre-/postemergence herbicide test; format: in vivo, Urochloa decumbens; conditions: for Surinam Grass plant response rating: postemergence
In short: as §1

barnyardgrass [5] = assay: Test B pre-/postemergence herbicide test; format: in vivo, Echinochloa crus-galli
In short: (§4)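 Response was scored visually 13 to 15 days after treatment against untreated greenhouse controls, 0 meaning no effect and 100 complete control. Formulations (solvent mixture plus surfactant) went onto soil after planting, onto foliage of 1- to 4-leaf plants, and onto 2-leaf plants in a flooded paddy set including rice and barnyardgrass.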

lambsquarters = assay: Test B pre-/postemergence herbicide test; format: in vivo, Chenopodium album
In short: as §1

wheat = assay: Test B postemergence herbicide test; format: in vivo, Triticum aestivum; design: key to Wheat plant response rating: 0 = no effect, 100 = complete control
In short: (§5)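 Treated at 2-leaf (paddy) or 1–4-leaf, 2–18 cm (postemergence); greenhouse 13–15 d; visual score vs control, 0 none to 100 complete control; dash = not tested.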

corn = assay: Test B pre-/postemergence herbicide test; format: in vivo, Zea mays; conditions: for Corn plant response rating: postemergence
In short: as §1

barnyardgrass [6] = assay: Test B flooded paddy test; format: in vivo, Echinochloa crus-galli; conditions: 1000 g ai/ha, visual rating, scale 0 to 100 (0 no effect, 100 complete control), 13 to 15 days
In short: as §3

ducksalad = assay: Test B flooded paddy test; format: in vivo, Heteranthera limosa; conditions: 1000 g ai/ha, visual rating, scale 0 to 100 (0 no effect, 100 complete control), 13 to 15 days
In short: as §3

morningglory [7] = assay: Test B pre-/postemergence herbicide test; format: in vivo, Ipomoea coccinea; conditions: for Morningglory plant response rating: postemergence
In short: as §4

wild oat = assay: Test B postemergence herbicide test; format: in vivo, Avena fatua
In short: as §5

barnyardgrass [8] = assay: Test A pre-/postemergence herbicide test; format: in vivo, Echinochloa crus-galli
In short: as §2

large crabgrass [9] = assay: Test A pre-/postemergence herbicide test; format: in vivo, Digitaria sanguinalis
In short: as §2

[10] = test system: small flower umbrella sedge; assay: Test B flooded paddy test; format: in vivo, Cyperus difformis; conditions: 1000 g ai/ha, visual rating, scale 0 to 100 (0 no effect, 100 complete control), 13 to 15 days
In short: as §3

cocklebur = assay: Test B pre-/postemergence herbicide test; format: in vivo, Xanthium strumarium
In short: as §4

rice = assay: Test B flooded paddy test; format: in vivo, Oryza sativa; conditions: 1000 g ai/ha, visual rating, scale 0 to 100 (0 no effect, 100 complete control), 13 to 15 days
In short: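 Visual ratings, 0 (no effect) to 100 (complete control), made versus controls after 13–15 d greenhouse. Paddy plants treated at 2-leaf stage; postemergence plants at 1- to 4-leaf stage, 2–18 cm tall.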

large crabgrass [11] = assay: Test B pre-/postemergence herbicide test; format: in vivo, Digitaria sanguinalis
In short: as §1

morningglory [12] = assay: Test A pre-/postemergence herbicide test; format: in vivo, Ipomoea spp.
In short: as §2

[13] = 500 g ai/ha, visual rating 0-100, 0 no effect, 100 complete control, preemergence
[14] = Postemergence, 500 g ai/ha, visual rating after 13 to 15 days, scale 0 (no effect) to 100 (complete control)
[15] = postemergence, 125 g ai/ha, visual rating, scale 0 (no effect) to 100 (complete control)
[16] = preemergence, 125 g ai/ha, 0 to 100 scale, 0 is no effect, 100 is complete control
[17] = Postemergence, 500 g ai/ha, 0 to 100 scale, 0 no effect, 100 complete control
[18] = Postemergence, 2000 g ai/ha, 0 to 100 scale, 0 no effect, 100 complete control
[19] = Preemergence, 500 g ai/ha, visual rating, 0 to 100 scale (0 no effect, 100 complete control)
[20] = Preemergence, 2000 g ai/ha, visual rating, 0 to 100 scale (0 no effect, 100 complete control)
[21] = 125 g ai/ha, visual rating, scale 0 (no effect) to 100 (complete control)
[22] = Postemergence, 250 g ai/ha, scale 0 (no effect) to 100 (complete control)
[23] = postemergence, 62 g ai/ha, scale 0 to 100
[24] = Preemergence, 2000 g ai/ha, 0 to 100 scale, 0 no effect, 100 complete control

CC(=NO)c1cccc(NC(=O)c2cc(C(C)(C)C)nn2C)c1 [Compound 107]
Plant response rating, Pigweed (pigweed; [13]): 0 | Plant response rating, Pigweed (pigweed; [14]): 10 | Pigweed plant response rating (pigweed; [15]): 0 | Plant response rating, Pigweed (pigweed; [16]): 0 | Foxtail, Giant plant response rating (giant foxtail [1]; [17]): 20 | Plant response rating, Foxtail, Giant (giant foxtail [1]; [18]): 35 | Foxtail, Giant plant response rating (giant foxtail [1]; [19]): 10 | Foxtail, Giant plant response rating (giant foxtail [1]; [20]): 80 | Plant response rating, Foxtail, Giant (giant foxtail [2]; [13]): 0 | Plant response rating, Foxtail, Giant (giant foxtail [2]; [14]): 0 | Foxtail, Giant plant response rating (giant foxtail [2]; [15]): 0 | Plant response rating, Foxtail, Giant (giant foxtail [2]; [16]): 0 | Velvetleaf plant response rating (velvetleaf [3]; [17]): 0 | Plant response rating, Velvetleaf (velvetleaf [3]; [18]): 0 | Velvetleaf plant response rating (velvetleaf [3]; [19]): 0 | Velvetleaf plant response rating (velvetleaf [3]; [20]): 0 | Plant response rating, Blackgrass (blackgrass; [14]): 0 | Blackgrass plant response rating (blackgrass; [15]): 0 | Plant response rating, Velvetleaf (velvetleaf [4]; [13]): 0 | Plant response rating, Velvetleaf (velvetleaf [4]; [14]): 0 | Velvetleaf plant response rating (velvetleaf [4]; [15]): 0 | Plant response rating, Velvetleaf (velvetleaf [4]; [16]): 0 | Pigweed plant response rating (redroot pigweed; [17]): 95 | Plant response rating, Pigweed (redroot pigweed; [18]): 100 | Pigweed plant response rating (redroot pigweed; [19]): 35 | Pigweed plant response rating (redroot pigweed; [20]): 95 | Plant response rating, Surinam Grass (Surinam grass; [13]): 10 | Plant response rating, Surinam Grass (Surinam grass; [14]): 10 | Surinam Grass plant response rating (Surinam grass; [21]): 10 | Plant response rating, Surinam Grass (Surinam grass; [16]): 0 | Plant response rating, Barnyardgrass (barnyardgrass [5]; [13]): 0 | Plant response rating, Barnyardgrass (barnyardgrass [5]; [14]): 0 | Barnyardgrass plant response rating (barnyardgrass [5]; [15]): 0 | Plant response rating, Barnyardgrass (barnyardgrass [5]; [16]): 0 | Plant response rating, Lambsquarters (lambsquarters; [13]): 30 | Plant response rating, Lambsquarters (lambsquarters; [14]): 20 | Lambsquarters plant response rating (lambsquarters; [15]): 10 | Plant response rating, Lambsquarters (lambsquarters; [16]): 0 | Plant response rating, Wheat (wheat; [14]): 0 | Wheat plant response rating (wheat; [15]): 0 | Plant response rating, Corn (corn; [13]): 0 | Plant response rating, Corn (corn; [14]): 0 | Corn plant response rating (corn; [21]): 0 | Plant response rating, Corn (corn; [16]): 0 | Barnyardgrass plant response rating (barnyardgrass [6]): 0 | Ducksalad plant response rating (ducksalad): 60 | Plant response rating, Morningglory (morningglory [7]; [13]): 10 | Plant response rating, Morningglory (morningglory [7]; [14]): 0 | Morningglory plant response rating (morningglory [7]; [21]): 0 | Plant response rating, Morningglory (morningglory [7]; [16]): 0 | Plant response rating, Oat, Wild (wild oat; [14]): 0 | Oat, Wild plant response rating (wild oat; [15]): 0 | Barnyardgrass plant response rating (barnyardgrass [8]; [17]): 20 | Plant response rating, Barnyardgrass (barnyardgrass [8]; [18]): 55 | Barnyardgrass plant response rating (barnyardgrass [8]; [19]): 0 | Barnyardgrass plant response rating (barnyardgrass [8]; [20]): 35 | Crabgrass, Large plant response rating (large crabgrass [9]; [17]): 25 | Plant response rating, Crabgrass, Large (large crabgrass [9]; [18]): 40 | Crabgrass, Large plant response rating (large crabgrass [9]; [19]): 65 | Crabgrass, Large plant response rating (large crabgrass [9]; [20]): 90 | Sedge, Umbrella plant response rating [10]: 60 | Plant response rating, Cocklebur (cocklebur; [13]): 0 | Plant response rating, Cocklebur (cocklebur; [14]): 0 | Cocklebur plant response rating (cocklebur; [15]): 0 | Plant response rating, Cocklebur (cocklebur; [16]): 0 | Rice plant response rating (rice): 0 | Plant response rating, Crabgrass, Large (large crabgrass [11]; [13]): 10 | Plant response rating, Crabgrass, Large (large crabgrass [11]; [14]): 0 | Crabgrass, Large plant response rating (large crabgrass [11]; [15]): 0 | Plant response rating, Crabgrass, Large (large crabgrass [11]; [16]): 0 | Morningglory plant response rating (morningglory [12]; [17]): 30 | Plant response rating, Morningglory (morningglory [12]; [18]): 40 | Morningglory plant response rating (morningglory [12]; [19]): 95 | Morningglory plant response rating (morningglory [12]; [20]): 100

CN1Cc2c(NC(=O)c3cc(C(C)(C)C)nn3C)cccc2C1=O [Compound 54]
Pigweed plant response rating (pigweed; [22]): 10 | Pigweed plant response rating (pigweed; [23]): 0 | Plant response rating, Foxtail, Giant (giant foxtail [1]; [17]): 10 | Plant response rating, Foxtail, Giant (giant foxtail [1]; [18]): 5 | Foxtail, Giant plant response rating (giant foxtail [1]; [19]): 0 | Foxtail, Giant plant response rating (giant foxtail [1]; [24]): 15 | Foxtail, Giant plant response rating (giant foxtail [2]; [22]): 0 | Foxtail, Giant plant response rating (giant foxtail [2]; [23]): 0 | Plant response rating, Velvetleaf (velvetleaf [3]; [18]): 5 | Velvetleaf plant response rating (velvetleaf [3]; [19]): 0 | Velvetleaf plant response rating (velvetleaf [3]; [24]): 0 | Blackgrass plant response rating (blackgrass; [22]): 0 | Blackgrass plant response rating (blackgrass; [23]): 0 | Velvetleaf plant response rating (velvetleaf [4]; [22]): 0 | Velvetleaf plant response rating (velvetleaf [4]; [23]): 0 | Plant response rating, Pigweed (redroot pigweed; [17]): 20 | Plant response rating, Pigweed (redroot pigweed; [18]): 20 | Pigweed plant response rating (redroot pigweed; [19]): 10 | Pigweed plant response rating (redroot pigweed; [24]): 65 | Surinam Grass plant response rating (Surinam grass; 62 g ai/ha, scale 0 to 100): 0 | Barnyardgrass plant response rating (barnyardgrass [5]; [22]): 0 | Barnyardgrass plant response rating (barnyardgrass [5]; [23]): 0 | Lambsquarters plant response rating (lambsquarters; [22]): 40 | Lambsquarters plant response rating (lambsquarters; [23]): 40 | Wheat plant response rating (wheat; 250 g ai/ha, scale 0 to 100, 0 no effect, 100 complete control, preemergence): 0 | Wheat plant response rating (wheat; [22]): 0 | Wheat plant response rating (wheat; [23]): 0 | Corn plant response rating (corn; 62 g ai/ha, scale 0 to 100): 10 | Barnyardgrass plant response rating (barnyardgrass [6]): 0 | Ducksalad plant response rating (ducksalad): 0 | Morningglory plant response rating (morningglory [7]; 62 g ai/ha, scale 0 to 100): 10 | Oat, Wild plant response rating (wild oat; [22]): 0 | Oat, Wild plant response rating (wild oat; [23]): 0 | Plant response rating, Barnyardgrass (barnyardgrass [8]; [17]): 10 | Plant response rating, Barnyardgrass (barnyardgrass [8]; [18]): 10 | Barnyardgrass plant response rating (barnyardgrass [8]; [19]): 5 | Barnyardgrass plant response rating (barnyardgrass [8]; [24]): 25 | Plant response rating, Crabgrass, Large (large crabgrass [9]; [17]): 10 | Plant response rating, Crabgrass, Large (large crabgrass [9]; [18]): 15 | Crabgrass, Large plant response rating (large crabgrass [9]; [19]): 25 | Crabgrass, Large plant response rating (large crabgrass [9]; [24]): 35 | Sedge, Umbrella plant response rating [10]: 0 | Cocklebur plant response rating (cocklebur; [22]): 10 | Cocklebur plant response rating (cocklebur; [23]): 10 | Rice plant response rating (rice): 0 | Crabgrass, Large plant response rating (large crabgrass [11]; [22]): 0 | Crabgrass, Large plant response rating (large crabgrass [11]; [23]): 0 | Plant response rating, Morningglory (morningglory [12]; [17]): 0 | Plant response rating, Morningglory (morningglory [12]; [18]): 10 | Morningglory plant response rating (morningglory [12]; [19]): 0 | Morningglory plant response rating (morningglory [12]; [24]): 15
